Experimental data taken from US7659305B2, “Therapeutic proline derivatives” (Pfizer Inc., priority 2002, dated 2010).
Counter-ions that a name gives are not always drawn.

Biological target: T1, α2δ subunit derived from porcine brain tissue (Sus scrofa, UniProt A0A287BIN3)
T1 construct: the α2δ subunit derived from porcine brain tissue; from tissue; host or cells: porcine brain tissue
Assay: radioligand binding assay using [3H]gabapentin
Details: [3H]gabapentin binding
From the text: The biological activity of the alpha-2-delta ligands of the invention may be measured in a radioligand binding assay using [^3H]gabapentin and the α2δ subunit derived from porcine brain tissue (Gee N. S., Brown J. P., Dissanayake V. U. K., Offord J., Thurlow R., Woodruff G. N., J. Biol. Chem., 1996;271:5879-[…]). Results may be expressed in terms of μM or nM α2δ binding affinity.

T1 sequence (A0A287BIN3 25-1109): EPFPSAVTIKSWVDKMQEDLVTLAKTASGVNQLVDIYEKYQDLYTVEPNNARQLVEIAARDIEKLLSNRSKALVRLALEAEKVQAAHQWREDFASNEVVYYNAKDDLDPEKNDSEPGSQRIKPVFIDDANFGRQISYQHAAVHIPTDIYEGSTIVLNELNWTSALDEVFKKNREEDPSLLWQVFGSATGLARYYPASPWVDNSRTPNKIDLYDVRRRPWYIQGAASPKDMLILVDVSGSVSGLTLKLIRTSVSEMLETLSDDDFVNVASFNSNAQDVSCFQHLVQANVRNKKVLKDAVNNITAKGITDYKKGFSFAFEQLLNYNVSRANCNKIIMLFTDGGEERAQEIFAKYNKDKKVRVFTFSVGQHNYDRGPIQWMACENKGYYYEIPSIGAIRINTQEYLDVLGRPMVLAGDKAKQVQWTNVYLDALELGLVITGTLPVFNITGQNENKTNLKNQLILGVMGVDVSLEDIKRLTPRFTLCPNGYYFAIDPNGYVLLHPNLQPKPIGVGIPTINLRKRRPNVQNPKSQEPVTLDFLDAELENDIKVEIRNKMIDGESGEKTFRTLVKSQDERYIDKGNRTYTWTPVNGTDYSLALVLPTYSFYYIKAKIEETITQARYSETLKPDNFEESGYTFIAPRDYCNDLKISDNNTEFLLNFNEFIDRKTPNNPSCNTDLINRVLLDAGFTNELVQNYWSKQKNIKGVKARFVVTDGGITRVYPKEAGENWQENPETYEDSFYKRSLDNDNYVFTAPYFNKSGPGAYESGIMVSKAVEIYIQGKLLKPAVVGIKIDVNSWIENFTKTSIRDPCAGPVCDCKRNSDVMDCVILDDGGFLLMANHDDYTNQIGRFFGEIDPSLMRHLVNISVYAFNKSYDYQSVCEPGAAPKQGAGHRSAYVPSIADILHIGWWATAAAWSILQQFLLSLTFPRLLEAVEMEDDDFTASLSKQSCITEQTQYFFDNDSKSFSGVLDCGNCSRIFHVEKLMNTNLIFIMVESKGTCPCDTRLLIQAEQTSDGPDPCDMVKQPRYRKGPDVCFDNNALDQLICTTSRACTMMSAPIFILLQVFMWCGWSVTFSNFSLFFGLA

| IC50 [µM] | Structure (SMILES) |
| --- | --- |
| 0.119 | O=C(O)[C@@H]1C[C@H](OCc2ccc(Cl)cc2)CN1 [Example 2, (2S,4S)-4-[(4-chlorobenzyl)oxyl]-pyrrolidine-2-carboxylic acid] |
| 0.072 | O=C(O)[C@@H]1C[C@H](Sc2ccccc2)CN1 [Example 4, (2S,4S)-4-phenylthio-pyrrolidine-2-carboxylic acid] |
| 0.21 | O=C(O)[C@@H]1C[C@H](Oc2ccc3ccncc3c2)CN1 [Example 7] |
| 0.005 | O=C(O)[C@@H]1C[C@H](Oc2cccc(Cl)c2)CN1 [Example 8, (2S,4S)-4-(3-Chloro-phenoxy)-pyrrolidine-2-carboxylic acid] |
| 0.011 | O=C(O)[C@@H]1C[C@H](Cc2cccc(F)c2)CN1 [Example 10, (2S,4S)-4-(3-Fluoro-benzyl)-pyrrolidine-2-carboxylic acid mono hydrochloride salt] |
| 0.015 | O=C(O)[C@@H]1C[C@H](Cc2cccc(F)c2F)CN1 [Example 11, (2S,4S)-4-(2.3-Difluoro-benzyl)-pyrrolidine-2-carboxylic acid mono-hydrochloride salt] |
| 0.007 | O=C(O)[C@@H]1C[C@H](Cc2cc(F)ccc2F)CN1 [Example 12, (2S,4S)-4-(2,5-Difluoro-benzyl)-pyrrolidine-2-carboxylic acid mono hydrochloride salt] |
| 0.009 | COc1cccc(C[C@@H]2CN[C@H](C(=O)O)C2)c1 [Example 14, (2S,4S)-4-(3-Methoxy-benzyl)-pyrrolidine-2-carboxylic acid mono hydrochloride salt] |
